For assay [1], the system named is lung tissue of a mouse animal model irradiated with 90 Gy. The assay can be described thus: Inhibition test on tissue damage caused by radiation (H&E staining of lung tissue). Type of assay: in vivo. The settings on record: 10 mg/kg intraperitoneally one hour before 90 Gy chest irradiation; two weeks after irradiation; compared to non-treatment group (IR). The protocol: The tissue of a mouse was fixed with 10% neutral formalin for one day, and a paraffin section was made. In order to remove the paraffin around the tissue, the tissue was allowed to react with a xylene solution and 95%, 90%, and 70% ethanol solutions in sequential order for 5 minutes each, and then immersed in a hematoxylin solution for 1 minute to stain the nuclei and then washed under running water for 10 minutes. Thereafter, the cytoplasm was stained by immersing the tissue in an eosin solution for 30 seconds. Thereafter, the tissue was immersed in 50%, 70%, 90%, and 95% ethanol solutions, and a xylene solution in sequential order, followed by dropping one drop of a mounting solution. Then, the tissue was covered with a cover slide and observed under a microscope (Carl Zeiss Vision). The lung tissue of a mouse animal model, in which the chest of the mouse was irradiated in a size of 3 mm with an intensity of 90 Gy, was fixed with 10% formalin, and a paraffin section was made. Thereafter, tissue inflammatory response and fibrosis were identified by using a hematoxylin and eosin staining method. Upon observing the tissue with this staining method, the cell nucleus is observed in blue and the cytoplasm in pink. One hour before irradiating the mouse animal model, 10 mg/kg of Dacomitinib was administered intraperitoneally. […]

The test system of assay [2] is vascular wall in the lung tissue of a mouse animal model irradiated with 90 Gy. Kind of assay: Inhibition test on in vivo vascular damage caused by radiation (vascular wall thickness, H&E staining). The settings on record: 10 mg/kg intraperitoneally one hour before 90 Gy chest irradiation; two weeks after irradiation; compared to non-treatment group (IR). As to the method:
The tissue of a mouse was fixed with 10% neutral formalin for one day, and a paraffin section was made. In order to remove the paraffin around the tissue, the tissue was allowed to react with a xylene solution and 95%, 90%, and 70% ethanol solutions in sequential order for 5 minutes each, and then immersed in a hematoxylin solution for 1 minute to stain the nuclei and then washed under running water for 10 minutes. Thereafter, the cytoplasm was stained by immersing the tissue in an eosin solution for 30 seconds. Thereafter, the tissue was immersed in 50%, 70%, 90%, and 95% ethanol solutions, and a xylene solution in sequential order, followed by dropping one drop of a mounting solution. Then, the tissue was covered with a cover slide and observed under a microscope (Carl Zeiss Vision). The lung tissue of a mouse animal model, in which the chest of the mouse was irradiated in a size of 3 mm with an intensity of 90 Gy, was fixed with 10% formalin, and a paraffin section was made. Thereafter, the tissue was stained with hematoxylin and eosin. Upon observing the tissue with this staining method, the cell nucleus is observed in blue and the cytoplasm in pink. One hour before irradiating the mouse animal model, 10 mg/kg of Dacomitinib was administered intraperitoneally. […]

Assay [3] concerns pulmonary vascular endothelial cells of irradiated lung. The assay can be described thus: Pulmonary fibrosis inhibition test in experimental animal model (trichrome staining of collagen). The format is in vivo, C57BL/6 mouse. The settings on record: 10 mg/kg intraperitoneally one hour before 90 Gy lung irradiation; inner wall of the aorta of lung tissue; compared to irradiation group (IR). As to the method:
The tissue of a mouse was fixed with 10% neutral formalin for one day, and a paraffin section was made. In order to remove paraffin around the tissue, the tissue was allowed to react with a xylene solution and 95%, 90%, and 70% ethanol solutions in sequential order for 5 minutes each. For the antigen activation of the tissue, the tissue was immersed in a 0.1 M citric acid solution (pH 6.0) and then boiled for 20 minutes. Subsequently, the tissue was allowed to react with a Bouin's solution for 1 minute, Weigert's hematoxylin for 10 minutes, phoshotunstic/phosphomolydic acid for 10 minutes, aniline blue for 5 minutes, and 1% acetic acid for 1 minute in sequential order. Thereafter, a dehydration process was performed, and then the tissue was covered with a cover glass and observed under a microscope (Carl Zeiss Vision). In order to observe whether a phenomenon of pulmonary fibrosis of vascular endothelial cells is shown as the symptom of pulmonary fibrosis occurred after radiotherapy, the site of the lung of a C57BL/6 mouse was topically irradiated with an intensity of 90 Gy. After excising the lung from the mouse, the cross-section of the aorta of the lung tissue was stained by a trichrome staining method in order to identify collagen which is a protein shown upon fibrosis of the pulmonary vascular endothelial cells. […]

Assay [4] concerns γH2AX in irradiated lung tissue. Kind of assay: Inhibition test on DNA damage caused by radiation (γH2AX immunostaining). The format is in vivo, mouse. The settings on record: 10 mg/kg one hour prior to 90 Gy lung irradiation; compared to non-treatment group (IR). The protocol: The tissue of a mouse was fixed with 10% neutral formalin for one day, and a paraffin section was made. In order to remove paraffin around the tissue, the tissue was immersed in a xylene solution and 100%, 95%, 90%, and 70% ethanol solutions in sequential order. For the antigen activation of the tissue, the tissue was immersed in a 0.1 M citric acid solution (pH 6.0) and boiled for 30 minutes, and then reacted with 3% hydrogen peroxide for 15 minutes. The tissue was allowed to react with γH2AX (abcam), which was diluted in 1:200 ratio in a PBS solution (including phosphate based saline buffer and 0.1% triton x-100), at 4° C. for 16 hours. After washing the tissue with PBS, a secondary antibody conjugated with biotin was diluted in 1:200 ratio and reacted with the tissue at room temperature for 30 minutes. After reacting the tissue with ABC (Avidin biotin complex) at room temperature for 30 minutes and color-developing 3,3′-DAB (3,3′-diaminobenzidine), the tissue was counterstained with hematoxylin. Subsequently, the tissue was immersed in 50%, 70%, 90%, 95%, and 100% ethanol solutions and a xylene solution in sequential order, followed by dropping one drop of a mounting solution. Then, the tissue was covered with a cover slide and observed under a microscope (Carl Zeiss Vision). […]

The subject of assay [5] is lung tissue of bleomycin-injected mouse. Kind of assay: Inhibition test on tissue damage caused by bleomycin (bleomycin-induced pulmonary fibrosis model). The format is in vivo. The note with it: 10 mg/kg intraperitoneally one hour before 1.25 U/kg bleomycin into the airway; three weeks after injection; compared to non-treatment group. The protocol:
The tissue of a mouse was fixed with 10% neutral formalin for one day, and a paraffin section was made. In order to remove the paraffin around the tissue, the tissue was allowed to react with a xylene solution and 95%, 90%, and 70% ethanol solutions in sequential order for 5 minutes each, and then immersed in a hematoxylin solution for 1 minute to stain the nuclei and then washed under running water for 10 minutes. Thereafter, the cytoplasm was stained by immersing the tissue in an eosin solution for 30 seconds. Thereafter, the tissue was immersed in 50%, 70%, 90%, and 95% ethanol solutions, and a xylene solution in sequential order, followed by dropping one drop of a mounting solution. Then, the tissue was covered with a cover slide and observed under a microscope (Carl Zeiss Vision). The tissue of a mouse was fixed with 10% neutral formalin for one day, and a paraffin section was made. In order to remove paraffin around the tissue, the tissue was allowed to react with a xylene solution and 95%, 90%, and 70% ethanol solutions in sequential order for 5 minutes each. For the antigen activation of the tissue, the tissue was immersed in a 0.1 M citric acid solution (pH 6.0) and then boiled for 20 minutes. […]

As to `COc1cc2ncnc(Nc3ccc(F)c(Cl)c3)c2cc1NC(=O)/C=C/CN1CCCCC1` [Dacomitinib, (2E)-N-{4-[(3-chloro-4-fluorophenyl)amino]-7-methoxy-6-quinazolinyl}-4-(1-piperidinyl)-2-but enamide], the “infiltration of the inflammatory cells and the fibrotic matrix around blood vessels” value in assay [1] is listed as “remarkably reduced”. Besides, the “thickness of the vascular wall” value in assay [2] is given as “remarkably reduced”. Also, the “blue sites of collagen (protein associated with pulmonary fibrosis), trichrome staining” value in assay [3] is “remarkably reduced”. Moreover, in assay [4], the “expression of γH2AX according to the DNA damage” value was “remarkably reduced”. Moreover, the “pathological characteristics such as infiltration of inflammatory cells, fibrous nodules, interstitial thickening” value in assay [5] is on record as “remarkably inhibited”.

(Values after patent US20230165861A1, “USE FOR PROTECTING OR MITIGATING RADIATION DAMAGE, AND FOR PREVENTING OR TREATING PULMONARY FIBROSIS” (KOREA INSTITUTE OF RADIOLOGICAL & MEDICAL SCIENCES, priority 2017, published 2023).)
